Assay results: US5545545A, “Lysine-insensitive maize dihydrodipicolinic acid synthase” (priority 1993, dated 1996)
pIC50: −log10 of the molar value. Where two headings read alike, the source gives them in different places.

Legend:
[1] = biological target: T1, wildtype E. coli DHPS from 71-18dapA+ (Escherichia coli, UniProt P0A6L2); test: DHPS activity in crude lysate of wildtype 71-18dapA+ cells, with or without lysine; assay type: biochemical
T1 construct: Crude lysates from wildtype 71-18dapA; endogenous in cells; host or cells: E. coli 71-18 (dapA+), crude desalted lysate
T1 sequence (P0A6L2 whole entry): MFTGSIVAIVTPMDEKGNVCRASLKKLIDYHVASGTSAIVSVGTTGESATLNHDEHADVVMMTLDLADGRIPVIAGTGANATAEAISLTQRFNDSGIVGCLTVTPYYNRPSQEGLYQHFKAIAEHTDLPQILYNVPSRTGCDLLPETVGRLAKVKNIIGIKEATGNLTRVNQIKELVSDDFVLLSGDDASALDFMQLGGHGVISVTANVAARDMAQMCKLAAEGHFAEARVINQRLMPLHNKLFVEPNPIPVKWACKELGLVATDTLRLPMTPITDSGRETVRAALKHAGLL
Description: (§1) Crude lysates from wildtype 71-18dapA^+ cells, AT997dapA^- transformed with pUC13 lacking a cDNA insert, and the five complementing transformant cell lines AT997(pZM DHPS1) to AT997(pZM DHPS5) were assayed for DHPS activity. The transformed cells were grown overnight in M9 medium+100 μM DAP, collected by centrifugation at 5000×g for 10 min and resuspended in 1/10 volume of extraction buffer (100 mM TRIS-HCl, pH 8.0, 100 mM NaCl, 100 mM pyruvate). Cells were placed briefly on ice, disrupted by sonication (60 W, 15 s) and debris removed by centrifugation at 15000×g for 15 min. The supernatant was desalted on a G25 Sephadex column equilibrated with 10 mM TRIS-HCl, pH 8.0 and 1 mM EDTA and used for enzyme assays.
(§2) The DHPS assay buffer (R. M. Wallsgrove et al., Phytochem., 20, 2651 (1981)) contained 100 mM TRIS-HCl, pH 8.0, 10 mM pyruvate, 1.4 mM aspartate semialdehyde neutralized just prior to use, and 100 μl enzyme in a final volume of 250 μl. Tubes were incubated at 37° C. for 30 min and reactions stopped by addition of 1 ml of 0.22M sodium citrate, 0.55M sodium phosphate, pH 5.0 and 0.25 mg/ml-aminobenzaldehyde. The colored reaction product was allowed to form for 3 hr at 37° C. and samples were centrifuged at 10000 g. Activity units (0.001 OD/min) were determined at 520 nm; standard errors of replicate assays were routinely <2% of the mean.

[2] = biological target: T2, altered maize DHPS (pZM DHPS-M3, threonine for alanine at position 112) (Zea mays, UniProt P26259, A166T/R367Q); test: Lysine sensitivity of DHPS activity of mutant pZM DHPS-M3; assay type: biochemical
T2 construct: the 380 amino acids of the maize cDNA coding region; beta-galactosidase N-terminal residues (5 aa) (N); vector polylinker (18 aa) (N); translated 5' untranslated region of the cDNA (13 aa) (N); made in house; host or cells: E. coli AT997 dapA- (inferred from the repeated mutagenesis and selection protocol)
T2 sequence (P26259 whole entry A166T/R367Q): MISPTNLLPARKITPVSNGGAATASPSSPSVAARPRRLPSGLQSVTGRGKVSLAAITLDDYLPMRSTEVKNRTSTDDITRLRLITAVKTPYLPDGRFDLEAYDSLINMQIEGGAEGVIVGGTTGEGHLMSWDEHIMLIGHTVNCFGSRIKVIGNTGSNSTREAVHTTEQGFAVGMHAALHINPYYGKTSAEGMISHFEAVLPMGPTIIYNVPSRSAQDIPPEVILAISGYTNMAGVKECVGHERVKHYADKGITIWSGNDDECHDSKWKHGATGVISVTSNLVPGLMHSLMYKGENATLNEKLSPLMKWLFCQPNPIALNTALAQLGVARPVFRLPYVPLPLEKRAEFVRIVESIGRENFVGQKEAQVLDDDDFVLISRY
Text: (§3) Additional independently derived mutations in maize DHPS were obtained by repeating the mutagenesis and selection protocol in separate experiments. […] Mutant plasmid pZM DHPS-M3 has a nucleotide change at position #496 (ACA instead of GCA); this change causes substitution of threonine for alanine at the same amino acid position (112) as altered in mutant pZM DHPS-M1. Mutant plasmid pZM DHPS-M4 has a nucleotide change at position #484 (AAA instead of GAA); this change causes substitution of lysine for glutamic acid at amino acid position #108.

native Zea mays DHPS [3] = biological target: T3, native Zea mays DHPS (Zea mays, UniProt P26259); test: Lysine feedback inhibition of native maize DHPS in vitro; assay type: biochemical; settings: native Zea mays DHPS / native plant DHP synthase, read-out: I50 of feedback inhibition by lysine
T3 construct: host or cells: maize cells (highly purified DHPS)
T3 sequence (P26259 55-380): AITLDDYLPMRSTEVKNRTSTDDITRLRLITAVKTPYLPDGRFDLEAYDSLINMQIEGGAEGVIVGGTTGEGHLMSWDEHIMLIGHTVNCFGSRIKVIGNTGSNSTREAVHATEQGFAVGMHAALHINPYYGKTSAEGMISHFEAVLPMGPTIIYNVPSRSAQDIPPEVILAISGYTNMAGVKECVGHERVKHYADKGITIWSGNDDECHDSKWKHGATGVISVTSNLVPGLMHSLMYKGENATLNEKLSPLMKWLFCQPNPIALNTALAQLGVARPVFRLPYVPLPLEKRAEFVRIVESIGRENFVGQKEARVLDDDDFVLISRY
Text: For example, novel plants resulting from the present method contain extractable lysine levels at least about ten times, and preferably, at least about 50 times, e.g., about 50-250 times higher than plants of the same species which contain only native DHPS.
This difference in lysine sensitivity was an additional indication that the cDNA inserts were from maize and that restoration of DHPS activity in the E. coli mutant was not caused by reversion of the dapA^- allele or due to an interaction with pUC13 plasmid DNA. In preliminary tests of partially purified DHPS from cell line pZM DHPS5, the [I]0.5 value for lysine was determined to be in the range of 20 to 30 μM.

[4] = test system: wildtype maize DHPS (pZM DHPS5B) fusion protein expressed in AT997 E. coli; test: Lysine inhibition of partially purified wildtype maize DHPS fusion protein (FIG. 4); assay type: biochemical
Description: (§4) AT997 cells (approximately 1 ml packed vol), containing plasmids pZM DHPS5B, pZM DHPS-M1 or pZM DHPS-M2, were extracted by sonication (60 W, 20 s) into 5 ml of ice cold buffer containing (100 mM TRIS-HCl, pH 8.0, 100 mM NaCl, 50 mM pyruvate) and then centrifuged at […] for 10 min. The supernatant was placed in a water bath (60° C.) for 5 min, cooled to 4° C. and centrifuged. The resulting supernatant was desalted on a Sephadex G50 column in 10 mM TRIS-HCl, pH 8.0, and 1 mM EDTA.
(§5) DHPS activity was determined as described in Example 2 except that the reaction was stopped after 2 min; at longer reaction times, activity was not linear with time. The volume of enzyme was adjusted so that the absorbance at 520 nm increased approximately 0.1 A (=100 activity units) after 2 min for standard control assays. Lysine concentrations were varied from 0.01 mM to 1.0 mM in the presence of constant concentrations of the substrates pyruvate (20 mM) and aspartate semialdehyde (1.4 mM). The average of two or three assays were used to determine enzyme activity values and percent inhibition by lysine.

[5] = biological target: T4, Purified DHPS from Black Mexican Sweet maize (Zea mays, UniProt P26259); test: DHPS activity of purified maize DHPS, with or without lysine; assay type: biochemical
T4 construct: from tissue; host or cells: Black Mexican Sweet maize suspension cultures (endogenous enzyme, purified more than 4000-fold)
T4 sequence (P26259 55-380): T3 sequence (P26259 55-380)
Description: as §2
The putative start of the coding region for maize DHPS was established by comparison of the N-terminus amino acid sequence of SDS-PAGE purified DHPS monomer with the amino acid sequence derived from the nucleotide sequence. DHPS was purified more than 4000-fold with 25% recovery from Black Mexican Sweet maize suspension cultures by the procedure of D. A. Frisch et al., Plant Physiol., 96, 444 (1991). Only one protein band (ca. 130000 Mr) was detected by silver-staining after native polyacrylamide gel electrophoresis (PAGE) and this band corresponded to the position of DHPS activity. […]

[6] = biological target: T5, altered maize DHPS (pZM DHPS-M2) fusion protein expressed in AT997 E. coli (Zea mays, UniProt P26259); test: Lysine inhibition of partially purified mutant DHPS-M2 fusion protein (FIG. 4); assay type: biochemical; settings: L-lysine concentrations as high as 1.0 mM
T5 construct: heat-treated, desalted extract
T5 sequence (P26259 whole entry, the tested form may be a part): as the sequence (P26259 whole entry A166T/R367Q) above, with T166A, Q367R counted along it
Description: as §4, §5

[7] = biological target: T6, altered maize DHPS (pZM DHPS-M1) fusion protein expressed in AT997 E. coli (Zea mays, UniProt P26259, A166V/R367Q); test: Lysine inhibition of partially purified mutant DHPS-M1 fusion protein (FIG. 4); assay type: biochemical
T6 construct: made in house; host or cells: E. coli AT997 dapA- (pZM DHPS-M1), heat-treated, desalted extract
T6 sequence (P26259 whole entry A166V/R367Q, the tested form may be a part): as the sequence (P26259 whole entry A166T/R367Q) above, with T166V counted along it
Description: as §4, §5

native Zea mays DHPS [8] = biological target: T3, native Zea mays DHPS; settings: highly purified DHPS from maize cells; Frisch et al., Plant Physiol., 96, 444 (1991); read-out: [I]0.5 value for lysine; cited from earlier work
[9] = biological target: T7, DHPS from wildtype, nontransformed E. coli strain DH5A (Escherichia coli, UniProt P0A6L2); test: Lysine inhibition of DHPS from wildtype nontransformed E. coli (FIG. 4); assay type: biochemical; settings: lysine concentrations up to 1 mM
T7 construct: DHPS from wildtype, nontransformed E. coli strain DH5A; endogenous in cells; host or cells: E. coli DH5A
T7 sequence (P0A6L2 whole entry): as the sequence (P0A6L2 whole entry) above

[10] = test system: maize DHPS (cDNA expression product in AT997dapA- transformants); test: DHPS activity in crude lysates of AT997dapA- transformants pZM DHPS1 to pZM DHPS5, with or without lysine; assay type: biochemical; settings: for % Inhibition: 100 μM lysine
Description: as §1, §2

[11] = biological target: T8, altered maize DHPS (pZM DHPS-M4, lysine for glutamic acid at position 108) (Zea mays, UniProt P26259, E162K/R367Q); test: Lysine sensitivity of DHPS activity of mutant pZM DHPS-M4; assay type: biochemical
T8 construct: the 380 amino acids of the maize cDNA coding region; beta-galactosidase N-terminal residues (5 aa) (N); vector polylinker (18 aa) (N); translated 5' untranslated region of the cDNA (13 aa) (N); made in house; host or cells: E. coli AT997 dapA- (inferred from the repeated mutagenesis and selection protocol)
T8 sequence (P26259 whole entry E162K/R367Q): as the sequence (P26259 whole entry A166T/R367Q) above, with E162K, T166A counted along it
Text: as §3

Question: Which “Specific Activity, 100 μM Lysine” value ([1]; 71-18dapA+ crude lysate) does the source give for `NCCCC[C@H](N)C(=O)O` [lysine, L-lysine] here?
Answer: Its value is 120 0.001 OD520 /min per milligram.

Question: What about the inhibition at 100 µM ([1]; 71-18dapA+, 100 μM lysine) of the same compound?
Answer: Its inhibition at 100 µM is 8%.

Question: What about the “lysine sensitivity of DHPS activity” value [2] of the same compound?
Answer: Its value is “lysine insensitivity”.

Question: And the pIC50 (native Zea mays DHPS [3])?
Answer: The pIC50 was 4.60.

Question: And the “inhibition of wildtype maize DHPS activity” value ([4]; 100 μM lysine, E. coli transformants)?
Answer: The value was “more than 90%”.

Question: And the “inhibition of DHPS activity by lysine” value ([4]; pZM DHPS5B, lysine concentrations as low as 25 μM)?
Answer: Its value is “significantly inhibited”.

Question: What about the inhibition at 100 µM ([5]; 100 μM lysine) of the same compound?
Answer: Its inhibition at 100 µM is 97%.

Question: What about the “DHPS activity, 100 μM Lysine” value ([5]; specific activity not determined (footnote b)) of the same compound?
Answer: The value was 8 units of DHPS activity.

Question: What about the “inhibition of DHPS activity by L-lysine” value [6] of the same compound?
Answer: The value was “not inhibited”.

Question: What about the “inhibition of DHPS activity by lysine” value ([7]; DHPS expressed from SEQ ID NO. 1 in E. coli transformants, 1000 μM lysine) of the same compound?
Answer: Its value is “not inhibited”.

Question: What about the “reduction in sensitivity to lysine versus native Zea mays DHPS” value ([7]; altered Zea mays DHPS of SEQ ID NO. 2) of the same compound?
Answer: Its value is “more than 400 times”.

Question: And the “L-lysine level at which altered DHPS is active, relative to native DHPS” value ([7]; altered maize DHPS of the invention, in vitro)?
Answer: The value was “at least 100 fold”.

Question: What about the “inhibition of DHPS activity by L-lysine” value ([7]; pZM DHPS-M1, L-lysine concentrations as high as 1.0 mM) of the same compound?
Answer: The value was “not inhibited”.

Question: What about the pIC50 (native Zea mays DHPS [8]) of the same compound?
Answer: Its pIC50 is 4.64.

Question: What about the “inhibition of DHPS activity by lysine” value [9] of the same compound?
Answer: The value was “intermediate level of inhibition”.

Question: And the “Specific Activity, 100 μM Lysine” value ([10]; AT997dapA- (pZM DHPS1))?
Answer: Its value is 24 0.001 OD520 /min per milligram.

Question: What about the “% Inhibition” value ([10]; AT997dapA- (pZM DHPS1)) of the same compound?
Answer: Its value is 90%.

Question: And the “Specific Activity, 100 μM Lysine” value ([10]; AT997dapA- (pZM DHPS2))?
Answer: The value was 15 0.001 OD520 /min per milligram.

Question: What about the “% Inhibition” value ([10]; AT997dapA- (pZM DHPS2)) of the same compound?
Answer: The value was 91%.

Question: And the “Specific Activity, 100 μM Lysine” value ([10]; AT997dapA- (pZM DHPS3))?
Answer: The value was 22 0.001 OD520 /min per milligram.

Question: And the “% Inhibition” value ([10]; AT997dapA- (pZM DHPS3))?
Answer: The value was 88%.

Question: What about the “Specific Activity, 100 μM Lysine” value ([10]; AT997dapA- (pZM DHPS4)) of the same compound?
Answer: The value was 42 0.001 OD520 /min per milligram.

Question: What about the “% Inhibition” value ([10]; AT997dapA- (pZM DHPS4)) of the same compound?
Answer: The value was 86%.

Question: And the “Specific Activity, 100 μM Lysine” value ([10]; AT997dapA- (pZM DHPS5))?
Answer: Its value is 27 0.001 OD520 /min per milligram.

Question: What about the “% Inhibition” value ([10]; AT997dapA- (pZM DHPS5)) of the same compound?
Answer: The value was 90%.

Question: And the “lysine sensitivity of DHPS activity” value [11]?
Answer: Its value is “lysine insensitivity”.
